# Test results taken from US8609608B2, “Antimicrobial peptides” (C3 Jian, Inc., priority 2007, dated 2013).
# Where no end group is shown, it is not given here.
# System: S. aureus
# Assay: not given
# Details: not given
row,Sequence,MIC S. aureus [µg/mL]
1,"FKFLFKFLF [Peptide S3L8-38, FKFLFKFLF]",>125
2,"LVHKLILRHLLF [Peptide S3L8-22, LVHKLILRHLLF]",>125
3,"FKFKHKLIF [Peptide S3L8-36, FKFKHKLIF]",>125
4,"LRLRHRVLF [Peptide S3L8-37, LRLRHRVLF]",>125
5,"WRIHLRARLHVKFRF [Peptide S3L8-4, WRIHLRARLHVKFRF]",62.5
6,"VFIVWVHKHVLF [Peptide S3L8-2, VFIVWVHKHVLF]",>125
7,"LRHRLRHRLIF [Peptide S3L8-31, LRHRLRHRLIF]",>125
8,"WRWRARWRWRLRWRF [Peptide S3L8-3, WRWRARWRWRLRWRF]",16
9,"FHVKIHFRLHVKFHF [Peptide S3L8-7, FHVKIHFRLHVKFHF]",>125
10,"FKHKFKHKFIF [Peptide S3L8-30, FKHKFKHKFIF]",>125
11,"WIWKHKFLHRHFLF [Peptide S3L8-12, WIWKHKFLHRHFLF]",>125
12,"LRLFLRWLF [Peptide S3L8-39, LRLFLRWLF]",16
13,"LRIHARFKVHIRLKF [Peptide S3L8-5, LRIHARFKVHIRLKF]",>125
14,"FLFRHRFRHRLVF [Peptide S3L8-28, FLFRHRFRHRLVF]",>125
15,"VFLHRHVIKHKLVF [Peptide S3L8-13, VFLHRHVIKHKLVF]",>125
16,"FIRKFLFKHLF [Peptide S3L8-26, FIRKFLFKHLF]",62.5
17,"VLKHVIAHKRLF [Peptide S3L8-25, VLKHVIAHKRLF]",>125

# System: clinical isolates of S. mutans
# Assay: not given
# Type: cell-based, Streptococcus mutans
# Details: clinical isolates of
# Experimental: S. mutans clinical isolates UA140 (32), UA159 (1), T8 (33), ATCC 25175, GS5 (Kuramitsu and Ingersoll (1977) Infect Immun., 17: 330-337), and all gram-positive strains listed below (see Table 9) were grown under anaerobic conditions in brain heart infusion or Todd-Hewitt (TH) broth (Difco) overnight at 37° C. prior to use (Eckert et al. (2006) Antimicrob. Agents Chemother. 50: 3651-3657). Veillonella atypica PK1910 was grown in Veillonella medium (Egland et al. (2004) Proc. Natl. Acad. Sci., USA, 101: 16917-16922). All strains were grown in an anaerobic atmosphere of 80% N2, 10% CO2, and 10% H2.
# Antibacterial growth inhibition assays were performed using sterile 96-well plates in a final volume of 100 μl, TH or Veillonella medium as described previously (Qi et al. (2005) FEMS Microbial Lett. 251: 321-326). Briefly, bacterial cells were grown overnight to an optical density at 600 nm of 0.75 to 0.8 (corresponding to 1×10^8 CFU/ml) and then diluted to 1×10^5 CFU/ml in broth and aliquoted onto plates. An appropriate volume of peptide stock solution (5 to 20 mg/ml, in water or methanol, depending on solubility) was then added to the first column of the plate to give 500 μg/ml or 512 μg/ml, followed by serial 1:2 dilutions across the plate to give wells containing peptides ranging from 500 to 1.95 μg/ml or 512 to 2 μg/ml. Methanol alone was also added to control for the effects of the solvent. The plates were then incubated at 37° C. under anaerobic conditions for 16 to 20 h without shaking, and the MIC was determined as the concentration of peptide present in the last clear well after visual inspection. Up to 5% (vol/vol) methanol was found not to be antimicrobial (data not shown). MICs were determined in triplicate for all bacteria.
row,Sequence,MIC S. mutans [µg/mL]
1,"FKFLFKFLF [Peptide S3L8-38, FKFLFKFLF]",>125
2,"LVHKLILRHLLF [Peptide S3L8-22, LVHKLILRHLLF]",>125
3,"FKFKHKLIF [Peptide S3L8-36, FKFKHKLIF]",>125
4,"LRLRHRVLF [Peptide S3L8-37, LRLRHRVLF]",>125
5,"LRHRLRHRLIF [Peptide S3L8-31, LRHRLRHRLIF]",>125
6,"WRWRARWRWRLRWRF [Peptide S3L8-3, WRWRARWRWRLRWRF]",4
7,"FKHKFKHKFIF [Peptide S3L8-30, FKHKFKHKFIF]",>125
8,"WIWKHKFLHRHFLF [Peptide S3L8-12, WIWKHKFLHRHFLF]",125
9,"LRLFLRWLF [Peptide S3L8-39, LRLFLRWLF]",16
10,"LRIHARFKVHIRLKF [Peptide S3L8-5, LRIHARFKVHIRLKF]",60
11,"FLFRHRFRHRLVF [Peptide S3L8-28, FLFRHRFRHRLVF]",60
12,"FIRKFLFKHLF [Peptide S3L8-26, FIRKFLFKHLF]",16
13,"VLKHVIAHKRLF [Peptide S3L8-25, VLKHVIAHKRLF]",>125

# System: E. faecalis
# Assay: not given
# Details: not given
row,Sequence,MIC E. faecalis [µg/mL]
1,"FKFLFKFLF [Peptide S3L8-38, FKFLFKFLF]",>125
2,"LVHKLILRHLLF [Peptide S3L8-22, LVHKLILRHLLF]",>125
3,"FKFKHKLIF [Peptide S3L8-36, FKFKHKLIF]",>125
4,"LRLRHRVLF [Peptide S3L8-37, LRLRHRVLF]",>125
5,"WRIHLRARLHVKFRF [Peptide S3L8-4, WRIHLRARLHVKFRF]",8
6,"VFIVWVHKHVLF [Peptide S3L8-2, VFIVWVHKHVLF]",>125
7,"LRHRLRHRLIF [Peptide S3L8-31, LRHRLRHRLIF]",125
8,"WRWRARWRWRLRWRF [Peptide S3L8-3, WRWRARWRWRLRWRF]",8
9,"FHVKIHFRLHVKFHF [Peptide S3L8-7, FHVKIHFRLHVKFHF]",>125
10,"FKHKFKHKFIF [Peptide S3L8-30, FKHKFKHKFIF]",>125
11,"WIWKHKFLHRHFLF [Peptide S3L8-12, WIWKHKFLHRHFLF]",125
12,"LRLFLRWLF [Peptide S3L8-39, LRLFLRWLF]",32
13,"LRIHARFKVHIRLKF [Peptide S3L8-5, LRIHARFKVHIRLKF]",12
14,"FLFRHRFRHRLVF [Peptide S3L8-28, FLFRHRFRHRLVF]",62.5
15,"VFLHRHVIKHKLVF [Peptide S3L8-13, VFLHRHVIKHKLVF]",125
16,"FIRKFLFKHLF [Peptide S3L8-26, FIRKFLFKHLF]",24
17,"VLKHVIAHKRLF [Peptide S3L8-25, VLKHVIAHKRLF]",>125

# System: P. aeruginosa
# Assay: MIC against P. aeruginosa
# Type: cell-based, Pseudomonas aeruginosa
# Details: not given
row,Sequence,MIC P. aeruginosa [µg/mL]
1,"FKFLFKFLF [Peptide S3L8-38, FKFLFKFLF]",>125
2,"LVHKLILRHLLF [Peptide S3L8-22, LVHKLILRHLLF]",>125
3,"FKFKHKLIF [Peptide S3L8-36, FKFKHKLIF]",>125
4,"LRLRHRVLF [Peptide S3L8-37, LRLRHRVLF]",>125
5,"WRIHLRARLHVKFRF [Peptide S3L8-4, WRIHLRARLHVKFRF]",>125
6,"VFIVWVHKHVLF [Peptide S3L8-2, VFIVWVHKHVLF]",>125
7,"LRHRLRHRLIF [Peptide S3L8-31, LRHRLRHRLIF]",>125
8,"WRWRARWRWRLRWRF [Peptide S3L8-3, WRWRARWRWRLRWRF]",>125
9,"FHVKIHFRLHVKFHF [Peptide S3L8-7, FHVKIHFRLHVKFHF]",>125
10,"FKHKFKHKFIF [Peptide S3L8-30, FKHKFKHKFIF]",>125
11,"WIWKHKFLHRHFLF [Peptide S3L8-12, WIWKHKFLHRHFLF]",>125
12,"LRLFLRWLF [Peptide S3L8-39, LRLFLRWLF]",>125
13,"LRIHARFKVHIRLKF [Peptide S3L8-5, LRIHARFKVHIRLKF]",>125
14,"FLFRHRFRHRLVF [Peptide S3L8-28, FLFRHRFRHRLVF]",>125
15,"VFLHRHVIKHKLVF [Peptide S3L8-13, VFLHRHVIKHKLVF]",>125
16,"FIRKFLFKHLF [Peptide S3L8-26, FIRKFLFKHLF]",>125
17,"VLKHVIAHKRLF [Peptide S3L8-25, VLKHVIAHKRLF]",>125

# System: L. casei
# Assay: not given
# Details: not given
row,Sequence,MIC L. casei [µg/mL]
1,"FKFLFKFLF [Peptide S3L8-38, FKFLFKFLF]",32
2,"LVHKLILRHLLF [Peptide S3L8-22, LVHKLILRHLLF]",>62.5
3,"FKFKHKLIF [Peptide S3L8-36, FKFKHKLIF]",>62.5
4,"LRLRHRVLF [Peptide S3L8-37, LRLRHRVLF]",>62.5
5,"WRIHLRARLHVKFRF [Peptide S3L8-4, WRIHLRARLHVKFRF]",8
6,"VFIVWVHKHVLF [Peptide S3L8-2, VFIVWVHKHVLF]",>62.5
7,"LRHRLRHRLIF [Peptide S3L8-31, LRHRLRHRLIF]",>62.5
8,"WRWRARWRWRLRWRF [Peptide S3L8-3, WRWRARWRWRLRWRF]",16
9,"FHVKIHFRLHVKFHF [Peptide S3L8-7, FHVKIHFRLHVKFHF]",16
10,"FKHKFKHKFIF [Peptide S3L8-30, FKHKFKHKFIF]",>62.5
11,"WIWKHKFLHRHFLF [Peptide S3L8-12, WIWKHKFLHRHFLF]",>62.5
12,"LRLFLRWLF [Peptide S3L8-39, LRLFLRWLF]",16
13,"LRIHARFKVHIRLKF [Peptide S3L8-5, LRIHARFKVHIRLKF]",8
14,"FLFRHRFRHRLVF [Peptide S3L8-28, FLFRHRFRHRLVF]",>62.5
15,"VFLHRHVIKHKLVF [Peptide S3L8-13, VFLHRHVIKHKLVF]",>62.5
16,"FIRKFLFKHLF [Peptide S3L8-26, FIRKFLFKHLF]",16
17,"VLKHVIAHKRLF [Peptide S3L8-25, VLKHVIAHKRLF]",>62.5
